pIC50: −log10 of the molar value.
What was measured:
[1] = human absorption data, from Ertl et al., J. Med. Chem., 2000; cited from earlier work
human NHE3 [2] = target: T1, human NHE3 (Homo sapiens, UniProt P48764); assay: Cell-based assay of NHE-3 activity (persistent inhibition after washout), human; details: human Persistence assay; after 60 min incubation and washout
T1 construct: host or cells: PS120 fibroblasts
T1 sequence (P48764 26-834): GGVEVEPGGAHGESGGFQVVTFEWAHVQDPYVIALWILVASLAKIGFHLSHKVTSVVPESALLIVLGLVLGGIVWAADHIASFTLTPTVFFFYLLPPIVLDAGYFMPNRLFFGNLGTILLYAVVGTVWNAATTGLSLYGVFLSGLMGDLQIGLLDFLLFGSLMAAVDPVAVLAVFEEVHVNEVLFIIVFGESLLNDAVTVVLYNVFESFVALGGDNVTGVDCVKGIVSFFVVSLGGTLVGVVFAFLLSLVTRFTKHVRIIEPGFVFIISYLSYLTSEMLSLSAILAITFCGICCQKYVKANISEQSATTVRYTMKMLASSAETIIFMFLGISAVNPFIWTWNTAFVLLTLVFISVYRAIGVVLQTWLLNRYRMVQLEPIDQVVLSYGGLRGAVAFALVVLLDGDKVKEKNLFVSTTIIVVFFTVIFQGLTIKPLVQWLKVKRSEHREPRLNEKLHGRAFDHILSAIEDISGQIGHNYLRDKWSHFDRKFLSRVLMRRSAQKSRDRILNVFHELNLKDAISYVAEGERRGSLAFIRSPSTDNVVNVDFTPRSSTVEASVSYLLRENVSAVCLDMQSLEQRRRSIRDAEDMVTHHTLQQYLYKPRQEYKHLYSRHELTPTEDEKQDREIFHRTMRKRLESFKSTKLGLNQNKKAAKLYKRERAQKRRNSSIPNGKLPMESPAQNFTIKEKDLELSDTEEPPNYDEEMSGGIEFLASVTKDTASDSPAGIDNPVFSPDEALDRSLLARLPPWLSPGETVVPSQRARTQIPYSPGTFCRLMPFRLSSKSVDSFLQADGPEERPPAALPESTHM
T1 sequence (Q99653 2-195 partner limits assumed): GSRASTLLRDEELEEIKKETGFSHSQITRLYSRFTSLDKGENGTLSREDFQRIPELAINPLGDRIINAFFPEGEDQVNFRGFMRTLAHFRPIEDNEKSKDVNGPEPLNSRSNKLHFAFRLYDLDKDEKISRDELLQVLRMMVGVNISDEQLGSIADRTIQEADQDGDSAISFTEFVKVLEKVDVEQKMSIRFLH
Description: The ability of compounds to inhibit human and rat NHE-3-mediated Na^+-dependent H^+ antiport after application and washout was measured using a modification of the pH sensitive dye method described above. PS120 fibroblasts stably expressing human NHE3 and NHERF2 were obtained from Mark Donowitz (Baltimore, Md.). Opossum kidney (OK) cells were obtained from the ATCC and propagated per their instructions. The rat NHE-3 gene was introduced into OK cells via electroporation, and cells were seeded into 96 well plates and grown overnight. Medium was aspirated from the wells, cells were washed once with NaCl-HEPES buffer (100 mM NaCl, 50 mM HEPES, 10 mM glucose, 5 mM KCl, 2 mM CaCl2, 1 mM MgCl2, pH 7.4), then overlayed with NaCl-HEPES buffer containing 0-30 μM test compound. After a 60 min incubation at room temperature, the test drug containing buffer was aspirated from the cells. Following aspiration, cells were washed once with NaCl-HEPES buffer without drug, then incubated for 30 min at 37° C. with NH4Cl-HEPES buffer (20 mM NH4Cl, 80 mM NaCl, 50 mM HEPES. 5 mM KCl, 2 mM CaCl2), 1 mM MgCl2, pH 7.4) containing 5 μM BCECF-AM. Cells were washed once with Ammonium free, Na^+-free HEPES (100 mM choline, 50 mM HEPES, 10 mM glucose. 5 mM KCl, 2 mM CaCl2), 1 mM MgCl2, pH 7.4) and incubated in the same buffer for 10 minutes at room temperature to lower intracellular pH. NHE-3-mediated recovery of neutral intracellular pH was initiated (10 min after compound washout) by addition of Na-HEPES buffer. […] Changes in intracellular pH were monitored using a FLIPR Tetra® (Molecular Devices, Sunnyvale, Calif.) by excitation at λex 439 to 505 nm, and measuring BCECF fluorescence at λem 538 nm. The initial rate of the fluorescence ratio change was used as a measure of NHE-mediated Na^+/H^+ activity, and reported as the change in fluorescence ratio per minute.

human NHE3 [3] = target: T1, human NHE3; assay: Cell-based assay of NHE-3 activity (pre-incubation inhibition), human; details: human Preincuba assay; PS120 fibroblasts expressing human NHE3 and NHERF2
Description: Rat and human NHE-3-mediated Na^+-dependent H^+ antiport was measured using a modification of the pH sensitive dye method originally reported by Paradiso (Proc. Natl. Acad. Sci. USA. (1984) 81(23): 7436-7440). PS120 fibroblasts stably expressing human NHE3 and NHERF2 were obtained from Mark Donowitz (Baltimore, Md.). Opossum kidney (OK) cells were obtained from the ATCC and propagated per their instructions. The rat NHE-3 gene (GenBank M85300) was introduced into OK cells via electroporation, and cells were seeded into 96 well plates and grown overnight. Medium was aspirated from the wells then incubated for 30 min at 37° C. with NH4Cl-HEPES buffer (20 mM […], 80 mM NaCl, 50 mM HEPES, 5 mM KCl, 2 mM CaCl2, 1 mM MgCl2, pH 7.4) containing 5 μM BCECF-AM. Cells were washed once with Ammonium free, Na^t-free HEPES (100 mM choline, 50 mM HEPES, 10 mM glucose, 5 mM KCl, 2 mM CaCl2), 1 mM MgCl2, pH 7.4) and incubated in the same buffer for 10 minutes at room temperature to lower intracellular pH with 0-30 μM test compound. […] Changes in intracellular pH were monitored using a FLIPR Tetra®® (Molecular Devices, Sunnyvale, Calif.) by excitation at λex 439 to 505 nm, and measuring BCECF fluorescence at λem 538 nm. The initial rate of the fluorescence ratio change was used as a measure of NHE-mediated Na^+/H^+ activity, and reported as the change in fluorescence ratio per minute.

% inhibition (human NHE3 [2])	pIC50 (human NHE3 [2])	% inhibition (human NHE3 [3])	pIC50 (human NHE3 [3])	Structure (SMILES)	$ FA [1]
				OC[C@H]1O[C@@H](O[C@@H]2[C@@H](CO)OC(O)(CO)[C@H]2O)[C@H](O)[C@@H](O)[C@H]1O (mixture of isomers) [lactulose]	0.6
C (>70%)	> 7.00	C (>70%)	> 7.00	CN1Cc2c(Cl)cc(Cl)cc2C(c2cccc(S(=O)(=O)N[C@@H]3CCN(CCOCCNC(=O)NCCCCNC(=O)NCCOCCN4CC[C@@H](NS(=O)(=O)c5cccc(C6CN(C)Cc7c(Cl)cc(Cl)cc76)c5)C4)C3)c2)C1 (stereo partly drawn) [Example 24, N,N′-[(3R,3′R)-(7,14-Dioxo-3,18-dioxa-6,8,13,15-tetraazaicosane-1,20-diyl)bis(pyrrolidine-1,3-diyl)]bis[3-(6,8-dichloro-2-methyl-1,2,3,4-tetrahydroisoquinolin-4-yl)benzenesulfonamide]]	
C (>70%)	6.00 to 7.00	C (>70%)	> 7.00	CN1Cc2c(Cl)cc(Cl)cc2[C@H](c2cccc(S(=O)(=O)NC(C)(C)COCCOCCNC(=O)NCCCCNC(=O)NCCOCCOCC(C)(C)NS(=O)(=O)c3cccc([C@@H]4CN(C)Cc5c(Cl)cc(Cl)cc54)c3)c2)C1 [Example 47, 3-(2-[2-[2-([3-[(4S)-6,8-dichloro-2-methyl-1,2,3,4-tetrahydroisoquinolin-4-yl]benzene]sulfonamido)-2-methylpropoxy]ethoxy]ethyl)-1-(4-[[(2-[2-[2-([3-[(4S)-6,8-dichloro-2-methyl-1,2,3,4-tetrahydroisoquinolin-4-yl]benzene]sulfonamido)-2-methylpropoxy]ethoxy]ethyl)carbamoyl]amino]butyl)urea]	
C (>70%)	6.00 to 7.00	C (>70%)	> 7.00	CN1Cc2c(Cl)cc(Cl)cc2[C@H](c2cccc(S(=O)(=O)N3CCC(OCCOCCNC(=O)NCCCCNC(=O)NCCOCCOC4CCN(S(=O)(=O)c5cccc([C@@H]6CN(C)Cc7c(Cl)cc(Cl)cc76)c5)CC4)CC3)c2)C1 [Example 48]	
C (>70%)	6.00 to 7.00	C (>70%)	> 7.00	CN1Cc2c(Cl)cc(Cl)cc2[C@H](c2cccc(S(=O)(=O)N3CC[C@@H](OCCOCCNC(=O)NCCCCNC(=O)NCCOCCO[C@@H]4CCN(S(=O)(=O)c5cccc([C@@H]6CN(C)Cc7c(Cl)cc(Cl)cc76)c5)C4)C3)c2)C1 [Example 49, 1-(2-(2-(((R)-1-((3-((S)-6,8-dichloro-2-methyl-1,2,3,4-tetrahydroisoquinolin-4-yl)phenyl)sulfonyl)pyrrolidin-3-yl)oxy)ethoxy)ethyl)-3-(4-(3-(2-(2-(((R)-1-((3-((S)-6,8-dichloro-2-methyl-1,2,3,4-tetrahydroisoquinolin-4-yl)phenyl)sulfonyl)pyrrolidin-3-yl)oxy)ethoxy)ethyl)ureido)buty)urea]	
C (>70%)	6.00 to 7.00	C (>70%)	> 7.00	CN1Cc2c(Cl)cc(Cl)cc2[C@H](c2cccc(S(=O)(=O)N3CC[C@H](OCCOCCNC(=O)NCCCCNC(=O)NCCOCCO[C@H]4CCN(S(=O)(=O)c5cccc([C@@H]6CN(C)Cc7c(Cl)cc(Cl)cc76)c5)C4)C3)c2)C1 [Example 50]	
A (NHE3 <40%)	< 6.00	A (NHE3 <40%)	< 6.00	CC(C)[C@H](COCCOCCNC(=O)NCCCCNC(=O)NCCOCCOC[C@H](NS(=O)(=O)c1cccc([C@@H]2CN(C)Cc3c(Cl)cc(Cl)cc32)c1)C(C)C)NS(=O)(=O)c1cccc([C@@H]2CN(C)Cc3c(Cl)cc(Cl)cc32)c1 [Example 51]	
				C=CCc1ccccc1OCC(O)CNC(C)C (stereo not shown) [alprenolol]	96
				O=C(O)P(=O)(O)O [foscarnet]	17
				OC[C@@H](O)[C@@H](O)[C@H](O)[C@H](O)CO [mannitol]	26
				Cc1ccccc1N1C(=O)c2cc(S(N)(=O)=O)c(Cl)cc2NC1C (stereo not shown) [metolazone]	64
				O=C(O)c1cc(/N=N/c2ccc(O)c(C(=O)O)c2)ccc1O [olsalazine]	2.3
				C=CCOc1ccccc1OCC(O)CNC(C)C (stereo not shown) [oxyprenolol]	97
				CC(C)NCC(O)COc1cccc2[nH]ccc12 (stereo not shown) [pindolol]	92
				CC(=O)Nc1ccc(OCC(O)CNC(C)C)cc1 (stereo not shown) [practolol]	95
				OC[C@H]1O[C@H](OC[C@H]2O[C@H](O[C@]3(CO)O[C@H](CO)[C@@H](O)[C@@H]3O)[C@H](O)[C@@H](O)[C@@H]2O)[C@H](O)[C@@H](O)[C@H]1O [raffinose]	0.3
				O=C(O)c1cc(/N=N/c2ccc(S(=O)(=O)Nc3ccccn3)cc2)ccc1O [sulfasalazine]	12
				CCN1CCCC1CNC(=O)c1cc(S(N)(=O)=O)ccc1OC (stereo not shown) [sulpiride]	36
				NC[C@H]1CC[C@H](C(=O)O)CC1 [tranexamic acid]	55
